Experimental data reported in paper PMC6539602, “Antioxidant and Photoprotective Activity of Apigenin and Its Potassium Salt Derivative in Human Keratinocytes and Absorption in Caco-2 Cell Monolayers” (International Journal of Molecular Sciences, 2019).

Key:
[1] = tested on: Caco-2 cell monolayer; design: method as in PMID 29186068; conditions: Caco-2 cell model; cited from earlier work
[2] = Trolox equivalent antioxidant capacity (TEAC); type: biochemical; conditions: Trolox equivalents per millimole of compound; mean ± SD
Description: (§1) Three different methods were performed to determine the antioxidant capacity of both apigenins. The Trolox equivalent antioxidant capacity (TEAC) was performed, as previously reported to establish the ABTS^·+ scavenging ability of both compounds [21]. The TEAC of the samples was calculated from the standard curve of Trolox, and the results are expressed in micromoles of Trolox equivalents (TE) per millimole of compound. The ferric reducing antioxidant power (FRAP) assay was performed, as described elsewhere. The reduction of a ferric-tripyridyltriazine complex was estimated, and the results are expressed in micromoles of Fe^2+ per millimole of compound. To assay the capacity of the compounds to scavenge peroxyl radicals, a validated assay of the oxygen radical absorbance capacity (ORAC) method was used. The ORAC assay was carried out on a microplate reader (POLAstar Omega, BMG LabTech GmbH, Offenburg, Germany) with 495 nm excitation and 520 nm emission filters to monitor fluorescein oxidation. The results are expressed in micromoles of TE per millimole of compound.

[3] = Caco-2 cell monolayer bidirectional permeability; type: in vitro ADME; conditions: human
Description: The cells were seeded into 6-well inserts with a polyethylene terephthalate (PET) membrane (pore size of 0.4 µm) (BD Falcon) at a density of 1.0 × 10^5 cells. Cell culture was maintained at 37 °C under 90% humidity and 5% CO2. The medium was replaced every 2–3 days for both the apical (AP) and basolateral (BL) chambers of the transwell filters. Cell monolayers were used 19–21 days after seeding, once confluence and differentiation were achieved. To check the integrity of each cell monolayer, the transepithelial electrical resistance (TEER) was measured before and after the experiments with an epithelial voltohmmeter (Millicell-ERS®). Permeability studies were performed by adding apigenin and apigenin-K at a concentration of 50 µM dissolved in HBSS medium (pH 7.4). The transport experiment was initiated by removing the culture medium from the AP and BL chambers. HBSS medium was prewarmed to wash the Caco-2 monolayers twice and, subsequently, to incubate the monolayers for 30 min at 37 °C. Afterwards, the test compounds were added to the apical (AP) or basolateral (BL) chambers to perform bidirectional permeability studies, while the receiving chamber contained the corresponding volume of HBSS. The six-well plate containing the cell monolayers was put into an orbital environmental shaker, which was set at a constant temperature (37 °C) and agitation rate (54 rpm) for the duration of the permeability experiments. […] The apparent permeability (Papp) values for each compound and direction can be calculated according to the following equation:(2) Papp= dQ/dt×1/A×C0×60 where Papp is the apparent permeability (cm/s), dQ/dt is the steady state flux, A is the diffusion area of the membrane (cm^2), C0 is the initial compound concentration in the donor compartment (µM) and 60 is a conversion factor [54]. […] In addition, the efflux ratio (ER) was calculated to determine the absorption mechanism, such as the ratio of Papp (BL-AP) to Papp (AP-BL). (3) ER= Papp (BL-AP)/Papp (AP-BL) The analyses of the samples from the permeability assay were analyzed via a high-performance liquid chromatograph Agilent LC 1100 series (Agilent Technologies, Inc., Palo Alto, CA, USA) controlled by the ChemStation software and equipped with a pump, autosampler, column oven and UV-Vis diode array detector. The samples were separated on a Poroshell 120 SB-C18 column (2.7 µm, 4.6 × 150 mm) after each 10 µL injection and were monitored at 280 nm. […] Quantitative evaluations of the apigenin or apigenin-K concentration were performed using the corresponding calibration graph of each compound with a six-point regression curve (r^2 > 0.999).

[4] = Oxygen radical absorbance capacity (ORAC); type: biochemical; conditions: Trolox equivalents per millimole of compound; mean ± SD
Description: as §1

[5] = Ferric reducing antioxidant power (FRAP); type: biochemical; conditions: mean ± SD
Description: as §1

- efflux ratio at 120 min, 50 µM ([3]; Caco-2, pH 7.4, Papp (BL-AP)/Papp (AP-BL)): 0.51
- Papp A→B at 120 min, 50 µM ([3]; Caco-2, apical-to-basolateral, 50 µM, HBSS pH 7.4, 120 min, mean of 6 replicates ± SD): 18.1 ± 1.7 ×10⁻⁶ cm/s
- Papp B→A at 120 min, 50 µM ([3]; Caco-2, basolateral-to-apical, 50 µM, HBSS pH 7.4, 120 min, mean of 6 replicates ± SD): 9.3 ± 1.3 ×10⁻⁶ cm/s
- Papp at 120 min, 50 µM ([3]; pH 7.4, Caco-2 cell model, read-out: apparent permeability (Papp)): 18.1 ×10⁻⁶ cm/s
Structure (SMILES): O=c1cc(-c2ccc(O)cc2)oc2cc(O)cc(O)c12 [Apigenin, 4′,5,7-trihydroxyflavone]
- apparent permeability relative to its flavonol kaempferol [1]: 2.5 fold
- TEAC [2]: 2022.2 ± 154.8 µmol TE/mmol
- ORAC [4]: 887.9 ± 5.8 µmol TE/mmol
- FRAP [5]: 113.2 ± 12.2 µmol Fe^2+/mmol
